Holding throughout (test): NCI-60 cell line screen, 48 h
In test [1] the test system is MDA-MB-231.
In test [2] the test system is CCRF-CEM.
The subject of test [3] is NCI-H460.
Test [4] has as its system TK-10.
The subject of test [5] is HCT-15.
For test [6], the system named is NCI-H226.
The test system of test [7] is OVCAR-5.
The subject of test [8] is SNB-75.
Test [9] relates to NCI-H522.
For test [10], the system named is 786-0.
Test [11] relates to CAKI-1.
Test [12] has as its system SK-MEL-28.
In test [13] the test system is HCC 2998.
Test [14] has as its system BT-549.
The subject of test [15] is OVCAR-8.
Test [16] relates to SR.
Test [17] relates to Hs-578T.
The subject of test [18] is U-251.
For test [19], the system named is NCI/ADR-RES.
Test [20] deals with OVCAR-3.

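Results reflect a 48-hour exposure of cells in 96-well plates to compound at five concentrations. GI50 marks 50% less growth.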 The source made the active and inactive calls. Rule as the data show it: active = GI50 up to about 1.1 µM and inactive = higher. A value given as a limit tells only on which side of the number the result lay.

`O=C1c2ccccc2C(=O)N1CCCSc1ccccc1`: the GI50 in test [1] was > 100 µM (inactive); in test [2], 38.5 µM (inactive); in [3], 90.6 µM (inactive); in test [4], > 100 µM (inactive); in test [5] it was 92.7 µM; in [6], > 100 µM (inactive). Besides, the GI50 is > 100 µM (inactive) in test [7]; 64.7 µM (inactive) in test [8]; 66.8 µM (inactive) in [9]; > 100 µM (inactive) in [10]; 93.1 µM (inactive) in test [11]; > 100 µM (inactive) in test [12]. The GI50 in test [13] is 25.1 µM (inactive); in test [14], > 100 µM (inactive); in test [15] it was > 100 µM (inactive); in [16], 31.8 µM (inactive); in test [17] it was > 100 µM (inactive); in test [18], 91.4 µM (inactive). In addition, the GI50 in test [19] was 52 µM (inactive); in test [20] it was 28.8 µM (inactive).

As for `COC(=O)CC1C(C)(C)C(=O)C2CC3=C4CC(=O)OC(c5ccoc5)C4(C)CCC3C1(C)C2=O` (stereo not given), the GI50 in test [1] is > 100 µM (inactive); in test [2] it was > 100 µM (inactive); in test [3], > 100 µM (inactive); in test [4], > 100 µM (inactive); in test [5], over 100 µM; in test [6], > 100 µM (inactive). Also, the GI50 in test [7], in test [8], in test [9], in test [10], in test [11] and in [12] was > 100 µM (inactive) each time. Moreover, the GI50 in [13], in [14], in test [15], in test [16], in test [17] and in test [18] was > 100 µM (inactive) each time. For the same molecule, the GI50 in [19] and in test [20] was > 100 µM (inactive) each time.

As to `COc1ccc2c3c1O[C@H](c1ccc(O)cc1)[C@H]3[N+](C)(C)CC2`, the GI50 in [1] is > 100 µM (inactive); in test [2], > 100 µM (inactive); in test [3] it was > 100 µM (inactive); in [4], > 100 µM (inactive); in [5] it was over 100 µM; in test [6], > 100 µM (inactive). The GI50 was > 100 µM (inactive) in [7]; > 100 µM (inactive) in [8]; 42.8 µM (inactive) in test [9]; > 100 µM (inactive) in test [10]; > 100 µM (inactive) in [11]; > 100 µM (inactive) in test [12]. In addition, the GI50 in [13], in [14], in test [15], in [16], in test [17] and in [18] was > 100 µM (inactive) in each case. The GI50 in test [19] and in test [20] was > 100 µM (inactive) in each case.

As for `CCN(CC)/C(Cl)=C(Cl)\C(=C1\Nc2ccc(OC)cc21)[N+](=O)[O-]`, the GI50 in [1] was 45.5 µM (inactive); in [2], 20.1 µM (inactive); in [3] it was 31.1 µM (inactive); in [4] it was 83.6 µM (inactive); in test [5], 52.7 µM; in test [6], 18.9 µM (inactive). The GI50 in test [7] is 95.7 µM (inactive); in [8], 15.3 µM (inactive); in [9], 20.2 µM (inactive); in [10], 47.9 µM (inactive); in test [11], 59 µM (inactive); in test [12] it was 55.7 µM (inactive). The GI50 in test [13] is > 100 µM (inactive); in test [14], 37.1 µM (inactive); in [15], 63.4 µM (inactive); in test [16], 16.6 µM (inactive); in test [17], 78.7 µM (inactive); in test [18] it was 37.5 µM (inactive). In addition, the GI50 in [19] was 70.6 µM (inactive); in test [20], 13.7 µM (inactive).

Consider `CCCCOc1ccc(/C=C/C2=[N+](CCO)CCO2)cc1`, for which the GI50 is 61.9 µM (inactive) in test [1]; 30.4 µM (inactive) in test [2]; 68.7 µM (inactive) in test [3]; > 100 µM (inactive) in [4]; 51.9 µM in [5]; 27.2 µM (inactive) in test [6]. For the same molecule, the GI50 in test [7] is > 100 µM (inactive); in test [8] it was 67.1 µM (inactive); in test [9], 21.5 µM (inactive); in test [10], 54.1 µM (inactive); in test [11] it was 67.5 µM (inactive); in [12], > 100 µM (inactive). In addition, the GI50 was 22.5 µM (inactive) in test [13]; > 100 µM (inactive) in test [14]; 70.1 µM (inactive) in [15]; 38 µM (inactive) in test [16]; > 100 µM (inactive) in test [17]; 34.4 µM (inactive) in test [18]. The figures for the GI50 in test [19] and in test [20] were 78 µM (inactive) and 61.5 µM (inactive), respectively.

In the case of `C/C=C/C=C/C1=NN(c2cccc(S(=O)(=O)O)c2)C2(C1)C(Cl)C(=O)N2c1nc2ccccc2s1` (stereo not given), the GI50 in test [1] was 14.5 µM (inactive); in test [2], 3.01 µM (inactive); in [3] it was 15.4 µM (inactive); in [4], 14.3 µM (inactive); in test [5], 14.5 µM; in test [6], 14.3 µM (inactive). Also, the GI50 was 17.4 µM (inactive) in test [7]; 12.4 µM (inactive) in test [8]; 4.22 µM (inactive) in test [9]; 13.8 µM (inactive) in [10]; 8.24 µM (inactive) in test [11]; 20.6 µM (inactive) in test [12]. Further, the GI50 in [13] is 16.9 µM (inactive); in test [14] it was 17.7 µM (inactive); in [15], 22 µM (inactive); in [16], 18.9 µM (inactive); in test [17], 25.2 µM (inactive); in test [18], 9.55 µM (inactive). Further, the GI50 in test [19] is 27.2 µM (inactive); in test [20], 8.36 µM (inactive).

Take `COC(=O)C1C2OC(C)(C)OC2CN1S(=O)(=O)c1ccc(C)cc1` (stereo not given): the GI50 in [1] is > 100 µM (inactive); in [2], > 100 µM (inactive); in test [3], > 100 µM (inactive); in [4], > 100 µM (inactive); in [5], over 100 µM; in test [6] it was 0.0527 µM (active). Moreover, the GI50 in test [7] was > 100 µM (inactive); in test [8], 10.9 µM (inactive); in test [9], > 100 µM (inactive); in [10], > 100 µM (inactive); in [11] it was > 100 µM (inactive); in [12], > 100 µM (inactive). Besides, the GI50 in [13], in [14], in test [15], in test [16], in test [17] and in test [18] was > 100 µM (inactive) each time. For the same molecule, the GI50 in [19] and in test [20] was > 100 µM (inactive) in each case.

The record behind these values is ChEMBL document CHEMBL1201862, “PubChem BioAssay data set” (2004).
